The values that follow come from ChEMBL document CHEMBL1133875, “1-(Arylpiperazinylamidoalkyl)-pyrimidones: orally active inhibitors of lipoprotein-associated phospholipase A(2)” (Bioorg Med Chem Lett, 2001).

For series [1], the target named is T1, Platelet-activating factor acetylhydrolase (Homo sapiens, UniProt Q13093).
T1 sequence (Q13093 whole entry): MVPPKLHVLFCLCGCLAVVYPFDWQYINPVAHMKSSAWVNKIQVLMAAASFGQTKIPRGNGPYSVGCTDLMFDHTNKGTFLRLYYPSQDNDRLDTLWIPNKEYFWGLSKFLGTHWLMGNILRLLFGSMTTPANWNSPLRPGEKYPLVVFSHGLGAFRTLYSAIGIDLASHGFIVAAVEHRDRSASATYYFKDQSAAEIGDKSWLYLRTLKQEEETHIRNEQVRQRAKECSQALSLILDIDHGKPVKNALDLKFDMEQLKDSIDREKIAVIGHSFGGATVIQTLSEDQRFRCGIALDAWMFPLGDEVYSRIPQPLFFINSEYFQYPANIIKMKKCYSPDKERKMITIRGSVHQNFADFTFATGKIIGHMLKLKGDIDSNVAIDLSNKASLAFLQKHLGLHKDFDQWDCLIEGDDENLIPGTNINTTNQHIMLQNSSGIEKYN
Description: Inhibitory activity against human lipoprotein associated phospholipase A2 (Lp-PLA2).

The species named for the next series is Rattus norvegicus. In words: Intrinsic clearance in rat liver microsomes. Format: ADME, Microsome. Background: Liver microsomes are a subcellular fraction often used to study metabolism.
For the next series, the species on record is Homo sapiens. In words: Intrinsic clearance in human liver microsomes. Format: ADME, Microsome.

For `CN(C)c1ncc(Cc2cn(CC(=O)N3CCN(c4ccc(Cl)cc4)CC3)c(SCc3ccc(F)cc3)nc2=O)cn1`, in series [1], the 50% inhibitory concentration (IC50) turned out to be 29 nM.

In the case of `Cc1ncc(Cc2cn(CC(=O)N3CCN(c4ccc(Cl)cc4)CC3)c(SCc3ccc(F)cc3)nc2=O)cn1`, the CLi came to 3 mL/min/g in the series listed under Rattus norvegicus and 7 mL/min/g in the series filed under Homo sapiens. For the same molecule, half-maximal inhibition in series [1] (IC50) was put at 18 nM.

As to `Cn1cc(Cc2cn(CC(=O)N3CCN(c4ccc(Br)cc4)CC3)c(SCc3ccc(F)cc3)nc2=O)cn1`, half-maximal inhibition in series [1] (IC50) was put at 51 nM.

`O=C(Cn1cc(Cc2cnc(C3CC3)nc2)c(=O)nc1SCc1ccc(F)cc1)N1CCN(c2ccc(Cl)cc2)CC1` registered a 50% inhibitory concentration (IC50) in series [1] of 21 nM. This IC50 is about 2.4-fold lower than that of the molecule before.

Molecule `O=C(Cn1cc(Cc2cncnc2)c(=O)nc1SCc1ccc(F)cc1)N1CCNCC1` had an IC50 in series [1] of 460 nM. This IC50 is about 22-fold higher than that of the molecule before.

For the molecule `O=C(Cn1cc(Cc2cncnc2)c(=O)nc1SCc1ccc(F)cc1)N1CCN(S(=O)(=O)c2ccccc2)CC1`, the IC50 in series [1] was 260 nM.

In series [1], `O=C(Cn1cc(Cc2cncnc2)c(=O)nc1SCc1ccc(F)cc1)N1CCN(Cc2ccccc2)CC1` showed an IC50 of 85 nM. Compared with the last molecule, the IC50 is about 3.1-fold lower.

The molecule `O=C(Cn1cc(Cc2cncnc2)c(=O)nc1SCc1ccc(F)cc1)N1CCN(C(=O)c2ccccc2)CC1` gave a half-inhibitory concentration (IC50) in series [1] of 1280 nM.

For the molecule `CCCCCCCC/C=C/CCCCCCCCNC(=O)CCCn1cc(Cc2cncnc2)c(=O)nc1SCc1ccc(F)cc1`, the IC50 in series [1] turned out to be 0.4 nM. Compared with the last molecule, the IC50 is about 3200-fold lower.

Turning to `Cn1cc(Cc2cn(CCCC(=O)N3CCN(c4ccc(C(F)(F)F)cc4)CC3)c(SCc3ccc(F)cc3)nc2=O)cn1`, in series [1], the IC50 is 5 nM.

Molecule `O=C(Cn1cc(Cc2cncnc2)c(=O)nc1SCc1ccc(F)cc1)N1CCN(c2ccc(C(F)(F)F)cc2)CC1` showed a half-maximal inhibitory concentration (IC50) in series [1] of 26 nM.

The molecule `O=C(Cn1cc(Cc2cncnc2)c(=O)nc1SCc1ccc(F)cc1)N1CCN(c2cncnc2)CC1` had an IC50 in series [1] of 410 nM. Compared with the last molecule, the IC50 is about 16-fold higher.

`COc1ncc(Cc2cn(CCCC(=O)N3CCN(c4ccc(C(F)(F)F)cc4)CC3)c(SCc3ccc(F)cc3)nc2=O)cn1` came in with a half-inhibitory concentration (IC50) in series [1] of 2 nM.

`COc1ncc(Cc2cn(CCCC(=O)N3CCN(c4ccc(Cl)c(Cl)c4)CC3)c(SCc3ccc(F)cc3)nc2=O)cn1` returned an IC50 in series [1] of 2 nM.

On to `Cn1cc(Cc2cn(CCCC(=O)N3CCN(c4ccc(Cl)c(Cl)c4)CC3)c(SCc3ccc(F)cc3)nc2=O)cnc1=O`, for which the midpoint of inhibition in series [1], the IC50, lay at 9 nM.

The molecule `Cn1cc(Cc2cn(CC(=O)N3CCN(Cc4ccccc4)C(=O)C3)c(SCc3ccc(F)cc3)nc2=O)cn1` displayed an IC50 in series [1] of 530 nM.

Turning to `COc1ncc(Cc2cn(CC(=O)N3CCN(c4ccc(Cl)cc4)CC3)c(SCc3ccc(F)cc3)nc2=O)cn1`, the results for the CLi in the series listed under Rattus norvegicus and in the series filed under Homo sapiens were 2 mL/min/g and 3 mL/min/g, respectively. For the same molecule, the IC50 in series [1] is 20 nM.

In series [1], `Cn1cc(Cc2cn(CC(=O)N3CCN(c4ccc(Cl)cc4)CC3)c(SCc3ccc(F)cc3)nc2=O)cn1` returned an IC50 of 44 nM.

Consider `O=C(O)Cn1cc(Cc2cn(CC(=O)N3CCN(c4ccc(Cl)cc4)CC3)c(SCc3ccc(F)cc3)nc2=O)cnc1=O`, for which the midpoint of inhibition in series [1], the IC50, lay at 89 nM. This IC50 lies about 2-fold higher than the previous one.

In series [1], `O=C(Cn1cc(Cc2cnc(C(F)(F)F)nc2)c(=O)nc1SCc1ccc(F)cc1)N1CCN(c2ccc(Cl)cc2)CC1` registered an IC50 of 69 nM.

In the case of `O=C(Cn1cc(Cc2cncnc2)c(=O)nc1SCc1ccc(F)cc1)N1CCN(c2ccc(F)cc2)CC1`, the IC50 in series [1] turned out to be 97 nM.

In the case of `COc1ncc(Cc2cn(CC(=O)N3CCN(c4ccc(Cl)c(Cl)c4)CC3)c(SCc3ccc(F)cc3)nc2=O)cn1`, the results for the CLi in the series listed under Rattus norvegicus and in the series listed under Homo sapiens were 2 mL/min/g and 7 mL/min/g, respectively.

Consider `Cn1cc(Cc2cn(CC(=O)N3CCN(c4ccc(Cl)cc4)CC3)c(SCc3ccc(F)cc3)nc2=O)cnc1=O`, for which the CLi in the series listed under Rattus norvegicus came to 3 mL/min/g; in the series filed under Homo sapiens it was 4 mL/min/g. Also, the concentration for half-maximal inhibition (IC50) in series [1] is 70 nM.

The molecule `Cn1cc(Cc2cn(CCCC(=O)N3CCN(c4ccc(Cl)cc4)CC3)c(SCc3ccc(F)cc3)nc2=O)cn1` yielded an IC50 in series [1] of 3 nM.

In series [1], `O=C(O)Cn1cc(Cc2cn(CCCC(=O)N3CCN(c4ccc(Cl)c(Cl)c4)CC3)c(SCc3ccc(F)cc3)nc2=O)cnc1=O` displayed an IC50 of 9 nM.

`COc1ncc(Cc2cn(CCCC(=O)N3CCN(c4ccc(Cl)cc4)CC3)c(SCc3ccc(F)cc3)nc2=O)cn1`: the CLi in the series filed under Rattus norvegicus was 19 mL/min/g; in the series filed under Homo sapiens, more than 50 mL/min/g. Moreover, the midpoint of inhibition in series [1], the IC50, lay at 8 nM.

On to `CC(C)(C)c1ncc(Cc2cn(CC(=O)N3CCN(c4ccc(Cl)cc4)CC3)c(SCc3ccc(F)cc3)nc2=O)cn1`, for which the IC50 in series [1] turned out to be 34 nM.

With `O=C(Cn1cc(Cc2cncnc2)c(=O)nc1SCc1ccc(F)cc1)N1CCN(c2ccccn2)CC1`, the IC50 in series [1] was found to be 350 nM.

With `Cn1cc(Cc2cn(CC(=O)N3CCN(C4CCCCC4)CC3)c(SCc3ccc(F)cc3)nc2=O)cn1`, the 50% inhibitory concentration (IC50) in series [1] stood at 720 nM.

On to `CCCCCCCCCCCCN(C)C(=O)Cn1cc(Cc2cnc(OC)nc2)c(=O)nc1SCc1ccc(F)cc1`, for which the IC50 in series [1] came to 1 nM.

Molecule `CC(=O)c1ccc(N2CCN(C(=O)Cn3cc(Cc4cncnc4)c(=O)nc3SCc3ccc(F)cc3)CC2)cc1` showed a concentration for half-maximal inhibition (IC50) in series [1] of 130 nM. Against the preceding molecule, the IC50 is about 130-fold higher.

As to `O=C(Cn1cc(Cc2cnc(N3CCOCC3)nc2)c(=O)nc1SCc1ccc(F)cc1)N1CCN(c2ccc(Cl)cc2)CC1`, the CLi in the series listed under Rattus norvegicus is 13 mL/min/g; in the series filed under Homo sapiens it was more than 50 mL/min/g. Besides, in series [1], the IC50 worked out at 10 nM.

In series [1], `CCCCCCCCN1CCN(C(=O)Cn2cc(Cc3cnn(C)c3)c(=O)nc2SCc2ccc(F)cc2)CC1` yielded an IC50 of 24 nM.

For the molecule `Cn1cc(Cc2cn(CC(=O)N3CCN(c4ccc(Cl)c(Cl)c4)CC3)c(SCc3ccc(F)cc3)nc2=O)cn1`, the CLi came out at 6 mL/min/g in the series filed under Rattus norvegicus and 11 mL/min/g in the series listed under Homo sapiens. For the same molecule, in series [1], the IC50 came out at 12 nM.

The molecule `O=C(Cn1cc(Cc2cncnc2)c(=O)nc1SCc1ccc(F)cc1)N1CCN(c2ccccc2)CC1` returned an IC50 in series [1] of 120 nM.

Consider `O=C(Cn1cc(Cc2cncnc2)c(=O)nc1SCc1ccc(F)cc1)N1CCN(c2ccccc2)C(=O)C1`, for which the midpoint of inhibition in series [1], the IC50, lay at 6700 nM.

The molecule `O=C(Cn1cc(Cc2cncnc2)c(=O)nc1SCc1ccc(F)cc1)N1CCN(c2cccc(Cl)c2)CC1` returned an IC50 in series [1] of 66 nM.

In the case of `COc1ccc(N2CCN(C(=O)Cn3cc(Cc4cncnc4)c(=O)nc3SCc3ccc(F)cc3)CC2)cc1`, in series [1], the IC50 was 176 nM.

In general, IC50 refers to the midpoint of a concentration-inhibition curve. Lower therefore signals greater potency.
